# How the values were obtained:
# Experiment in all cases: Field trial, post-emergence foliar weed control
# Type in all cases: in vivo
# [1] = system: buckhorn plantain (Plantago lanceolata, PLALA); settings: 27 DAYS, 18 g ae/ha, alone
# Text: (§1) The (a) aminocyclopyrachloror an agriculturally acceptable salt or ester thereof is mixed with or applied in combination with (b) fluoroxypyr or an agriculturally acceptable salt or ester thereof in an amount sufficient to induce a synergistic herbicidal effect. […] As described in the Herbicide Handbook of the Weed Science Society of America, Ninth Edition, 2007, p. 429, “‘synergism’ [is] an interaction of two or more factors such that the effect when combined is greater than the predicted effect based on the response to each factor applied separately.” Synergistic in the herbicide context can mean that the use of (a) and (b) as defined above results in an increased weed control effect compared to the weed control effects that are possible with the use of (a) or (b) alone. In some embodiments, the damage or injury to the undesired vegetation caused by the compositions and methods disclosed herein is evaluated using a scale from 0% to 100%, when compared with the untreated control vegetation, wherein 0% indicates no damage to the undesired vegetation and 100% indicates complete destruction of the undesired vegetation. […] 22 (1967)
# (§2) Field trials were conducted with applications made to established grassland with naturally occurring weed populations, or applications were made to bare ground with naturally occurring weed populations. The target plants were treated with postemergence foliar applications after they had reached at least 3-4 leaves or at least 2-5 inches in height. All treatments were applied using a randomized complete block trial design, with 3-4 replications per treatment.
# (§3) Treatments consisted of aminocyclopyrachlor in acid form and fluoroxypyr-meptyl, each in water and applied alone or in combination. Spray solutions were prepared using an appropriate amount of dilution to form a 2 liter (L) aqueous spray solution with active ingredients in single and two way combinations. Formulated compounds were applied to the plant material with a backpack sprayer equipped with 8003 or Turbojet nozzles calibrated to deliver 187 liters per hectare (L/ha) to 400 L/ha at a spray height of 18-20 inches (43-50 centimeters (cm)) above average plant canopy or ground.
# (§4) The treated plants were shepherd's purse (Capsella bursa-pastoris, CAPBP), common fiddleneck (Amsinckia menziesii, AMSIN), wild oat (Avena fatua, AVEFA), cat's ear dandelion (Hypochaeris radicata, HRYRA), yellow star thistle (Centaurea solstitialis, CENSO), common guava (Psidium guajava, PSIGU), buckhorn plantain (Plantago lanceolata, PLALA), and calvary clover (Medicago arabica, MEDAB). The treated plots and control plots were rated blind at various intervals after application. Ratings were based on a scale of 0-100%, as discussed above, wherein 0% indicates no damage to the undesired vegetation and 100% indicates complete destruction of the undesired vegetation.
# (§5) Colby's equation was used to determine the herbicidal effects expected from the mixtures, as described above. The results were measured at 11 days, 17 days, 24 days, 27 days, 37 days, 70 days, 76 days, and 88 days after the first application of the compositions. […] The herbicide tank mix combinations tested, application rates and ratios employed, plant species tested, and results are given below.
# [2] = system: calvary clover (Medicago arabica, MEDAB); settings: 27 DAYS, alone
# Text: as §1, §2, §3, §4, §5
# [3] = system: cat's ear dandelion (Hypochaeris radicata, HRYRA); settings: alone
# Text: as §1, §2, §3, §4, §5
# [4] = system: common fiddleneck (Amsinckia menziesii, AMSIN); settings: alone; for Fluroxypyr-meptyl Mean % weed control: 70 g ae/ha; for Aminocyclopyrachlor Mean % weed control: 18 g ae/ha
# Text: as §1, §2, §3, §4, §5
# [5] = system: common guava (Psidium guajava, PSIGU); settings: alone
# Text: as §1, §2, §3, §4, §5
# [6] = system: shepherd's purse (Capsella bursa-pastoris, CAPBP); settings: alone
# Text: as §1, §2, §3, §4, §5
# [7] = system: wild oat (Avena fatua, AVEFA); settings: 11 DAYS, alone
# Text: as §1, §2, §3, §4, §5
# [8] = system: yellow star thistle (Centaurea solstitialis, CENSO); settings: 37 DAYS, alone
# Text: as §1, §2, §3, §4, §5
structure (smiles),measurement,setting,value
CCCCCCC(C)OC(=O)COc1nc(F)c(Cl)c(N)c1Cl (stereo not drawn) [Fluroxypyr-meptyl],Fluroxypyr-meptyl Mean % weed control,[1],10%
same,Fluroxypyr-meptyl Mean % weed control,[2]; 18 g ae/ha,11.25%
same,Fluroxypyr-meptyl Mean % weed control,[2]; 35 g ae/ha,7.5%
same,Fluroxypyr-meptyl Mean % weed control,[2]; 70 g ae/ha,47.5%
same,Fluroxypyr-meptyl Mean % weed control,"[3]; 11 DAYS, 70 g ae/ha",0%
same,Fluroxypyr-meptyl Mean % weed control,"[3]; 37 DAYS, 18 g ae/ha",0.5%
same,Fluroxypyr-meptyl Mean % weed control,"[3]; 37 DAYS, 70 g ae/ha",3%
same,Fluroxypyr-meptyl Mean % weed control,"[3]; 70 DAYS, 70 g ae/ha",1.75%
same,Fluroxypyr-meptyl Mean % weed control,[4]; 17 DAYS,3.33%
same,Fluroxypyr-meptyl Mean % weed control,[4]; 24 DAYS,3.33%
same,Fluroxypyr-meptyl Mean % weed control,"[5]; 76 DAYS, 80 g ae/ha",4.8%
same,Fluroxypyr-meptyl Mean % weed control,"[5]; 76 DAYS, 240 g ae/ha",16.3%
same,Fluroxypyr-meptyl Mean % weed control,"[5]; 88 DAYS, 80 g ae/ha",4.8%
same,Fluroxypyr-meptyl Mean % weed control,"[5]; 88 DAYS, 240 g ae/ha",16.3%
same,Fluroxypyr-meptyl Mean % weed control,"[6]; 17 DAYS, 35 g ae/ha",6.67%
same,Fluroxypyr-meptyl Mean % weed control,"[6]; 17 DAYS, 70 g ae/ha",13.33%
same,Fluroxypyr-meptyl Mean % weed control,"[6]; 24 DAYS, 70 g ae/ha",8.33%
same,Fluroxypyr-meptyl Mean % weed control,[7]; 70 g ae/ha,1%
same,Fluroxypyr-meptyl Mean % weed control,[8]; 70 g ae/ha,22.5%
"Nc1nc(C2CC2)nc(C(=O)O)c1Cl [Aminocyclopyrachlor, 6-amino-5-chloro-2-cyclopropylpyrimidine-4-carboxylic acid]",Aminocyclopyrachlor Mean % weed control,[1],22.5%
same,Aminocyclopyrachlor Mean % weed control,[2]; 18 g ae/ha,27.5%
same,Aminocyclopyrachlor Mean % weed control,[2]; 35 g ae/ha,47.5%
same,Aminocyclopyrachlor Mean % weed control,"[3]; 11 DAYS, 35 g ae/ha",1.75%
same,Aminocyclopyrachlor Mean % weed control,"[3]; 37 DAYS, 18 g ae/ha",28.75%
same,Aminocyclopyrachlor Mean % weed control,"[3]; 70 DAYS, 18 g ae/ha",36.25%
same,Aminocyclopyrachlor Mean % weed control,[4]; 17 DAYS,0%
same,Aminocyclopyrachlor Mean % weed control,[4]; 24 DAYS,0%
same,Aminocyclopyrachlor Mean % weed control,"[5]; 76 DAYS, 50 g ae/ha",7.5%
same,Aminocyclopyrachlor Mean % weed control,"[5]; 76 DAYS, 150 g ae/ha",48.3%
same,Aminocyclopyrachlor Mean % weed control,"[5]; 88 DAYS, 50 g ae/ha",7.5%
same,Aminocyclopyrachlor Mean % weed control,"[5]; 88 DAYS, 150 g ae/ha",57.5%
same,Aminocyclopyrachlor Mean % weed control,"[6]; 17 DAYS, 18 g ae/ha",23.33%
same,Aminocyclopyrachlor Mean % weed control,"[6]; 17 DAYS, 35 g ae/ha",50%
same,Aminocyclopyrachlor Mean % weed control,"[6]; 24 DAYS, 35 g ae/ha",50%
same,Aminocyclopyrachlor Mean % weed control,[7]; 35 g ae/ha,0%
same,Aminocyclopyrachlor Mean % weed control,[8]; 18 g ae/ha,57.5%

# From US20140094366A1, “SYNERGISTIC WEED CONTROL FROM APPLICATIONS OF AMINOCYCLOPYRACHLOR AND FLUROXYPYR” (Dow AgroSciences LLC, priority 2012, published 2014)
